According to article PMC10300026, “Discovery of an OTUD3 inhibitor for the treatment of non-small cell lung cancer” (Cell Death & Disease, 2023):

Target: T1, OTUD3 (Homo sapiens, UniProt Q5T2D3)
T1 construct: OTUD3 OTU (aa 52-209)
T1 sequence (Q5T2D3 52-209): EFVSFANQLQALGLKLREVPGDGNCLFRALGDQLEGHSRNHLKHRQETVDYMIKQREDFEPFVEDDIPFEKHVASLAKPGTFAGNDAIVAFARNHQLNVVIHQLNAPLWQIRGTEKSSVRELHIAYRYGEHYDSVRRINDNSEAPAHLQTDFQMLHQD
Experiment: SPR (Biacore T200, CM5 chip); supported by in vitro K48/K63 di-ubiquitin cleavage inhibition
Format: binding

Kd: 0.32 µM
SMILES: O=C(Nc1cccc(-c2nc3ccccc3[nH]2)c1)c1ccc(S(=O)(=O)N2CCc3ccccc3C2)cc1 [compound 16, 4-[dioxo(1,2,3,4-tetrahydroisoquinolin-2-yl)-λ6-sulfanyl]-N-[3-(1H-benzo[d]imidazol-2-yl)phenyl]benzamide]
